Our source for the T/C values is PubChem BioAssay AID192 (DTP/NCI, 2004).

Where “and” joins values, the source holds several entries; their conditions need not be identical. Equal values may be shown once. Inconclusive results and toxic doses are left out.

The test has as its system BDF1 mice, B16 melanoma ip, median survival T/C. Description: NCI In Vivo Anticancer Drug Screen. Data for tumor model B16 Melanoma (intraperitoneal) in B6D2F1 (BDF1) mice. To be noted: endpoint: median survival time, higher = longer survival. In outline:
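Tumor-bearing mice received test compound or vehicle. Survival or tumor size was then measured in both groups. The treated-group figure was divided by the control-group figure.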

[1] abbreviates: dose: 12.5 mg/kg/injection, schedule: Q01DX009 (ip), vehicle: Klucel (hydroxypropylcellulose) (HPC).
Setting [2] is: dose: 6.25 mg/kg/injection, schedule: Q01DX001 (ip), vehicle: water.
The mark [3] stands for this setting: dose: 12.5 mg/kg/injection, schedule: Q01DX001 (ip), vehicle: water.
Setting [4] is: dose: 25.0 mg/kg/injection, schedule: Q01DX001 (ip), vehicle: water.
Setting [5] is: dose: 100.0 mg/kg/injection, schedule: Q04DX003 (ip), vehicle: saline.
The mark [6] stands for this setting: dose: 200.0 mg/kg/injection, schedule: Q04DX003 (ip), vehicle: saline.
Setting [7] is: dose: 400.0 mg/kg/injection, schedule: Q04DX003 (ip), vehicle: saline.
Where [8] appears, read: dose: 3.12 mg/kg/injection, schedule: Q01DX009 (ip), vehicle: saline.
Setting [9] is: dose: 6.25 mg/kg/injection, schedule: Q01DX009 (ip), vehicle: saline.
Where [10] appears, read: dose: 12.5 mg/kg/injection, schedule: Q01DX009 (ip), vehicle: saline.
[11] abbreviates: dose: 25.0 mg/kg/injection, schedule: Q01DX009 (ip), vehicle: saline.
Setting [12] is: dose: 25.0 mg/kg/injection, schedule: Q01DX009 (ip), vehicle: saline with Tween-80.
[13] abbreviates: dose: 50.0 mg/kg/injection, schedule: Q01DX009 (ip), vehicle: saline with Tween-80.

Turning to `NCCCN=c1ccc2c3c1c(O)c1c(O)ccc(=O)c1c3[nH]n2CCNCCO`, the T/C was 158 % of control and 197 % of control (dose: 0.5 mg/kg/injection, schedule: Q01DX009 (ip), vehicle: water); 187 % of control and 227 % of control (dose: 1.0 mg/kg/injection, schedule: Q01DX009 (ip), vehicle: water); 216 % of control and 242 % of control (dose: 2.0 mg/kg/injection, schedule: Q01DX009 (ip), vehicle: water); 216 % of control and 244 % of control (dose: 4.0 mg/kg/injection, schedule: Q01DX009 (ip), vehicle: water); 216 % of control and 338 % of control (dose: 8.0 mg/kg/injection, schedule: Q01DX009 (ip), vehicle: water); 158 % of control (dose: 16.0 mg/kg/injection, schedule: Q01DX009 (ip), vehicle: water).
For `CS(=O)(=O)OCCCOS(C)(=O)=O`, under setting [1], the T/C was 91 % of control.
`COc1cccc2c1C(=O)c1c(O)c3c(c(O)c1C2=O)C[C@@](O)(/C(C)=N\O)C[C@@H]3OC1CC(N)C(O)C(C)O1` (stereo partly specified): the T/C by setting is: (dose: 3.13 mg/kg/injection, schedule: Q01DX009 (ip), vehicle: water) 115 % of control; under setting [2], 91 % of control; under setting [3], 213 % of control; (dose: 12.5 mg/kg/injection, schedule: Q01DX009 (ip), vehicle: water) 187 % of control; under setting [4], 207 % of control; (dose: 50.0 mg/kg/injection, schedule: Q01DX001 (ip), vehicle: water) 158 % of control.
As for `Cc1cccc(C)c1N1C(=O)CCC1=O`, the T/C was 101 % of control (dose: 100.0 mg/kg/injection, schedule: Q01DX009 (ip), vehicle: Klucel (hydroxypropylcellulose) (HPC)); 95 % of control (dose: 200.0 mg/kg/injection, schedule: Q01DX009 (ip), vehicle: Klucel (hydroxypropylcellulose) (HPC)); 102 % of control (dose: 400.0 mg/kg/injection, schedule: Q01DX009 (ip), vehicle: Klucel (hydroxypropylcellulose) (HPC)).
With `COc1cccc(/C=N/NC(=O)c2ccccc2N2CCCC2)c1O`, the T/C reads like this: (dose: 12.5 mg/kg/injection, schedule: Q01DX009 (ip), vehicle: olive oil, sesame oil, peanut oil) 89 % of control; (dose: 50.0 mg/kg/injection, schedule: Q01DX009 (ip), vehicle: olive oil, sesame oil, peanut oil) 89 % of control; (dose: 100.0 mg/kg/injection, schedule: Q01DX009 (ip), vehicle: olive oil, sesame oil, peanut oil) 87 % of control; (dose: 200.0 mg/kg/injection, schedule: Q01DX009 (ip), vehicle: olive oil, sesame oil, peanut oil) 86 % of control; (dose: 400.0 mg/kg/injection, schedule: Q01DX009 (ip), vehicle: olive oil, sesame oil, peanut oil) 96 % of control.
For the compound `CN(C)c1ccc(C(=O)c2ccc(N(C)C)cc2)cc1`, the T/C under setting [5] is 104 % of control, the T/C under setting [6] is 111 % of control and the T/C under setting [7] is 100 % of control.
Turning to `OCCNCCN1CCN(CCCN2c3ccccc3Sc3ccc(C(F)(F)F)cc32)CC1`, the T/C reads like this: under setting [8], 108 % of control; under setting [9], 102 % of control; under setting [10], 100 % of control; under setting [11], 92 % of control.
With `CCCN(C(=O)CCl)c1ccccc1`, the T/C (dose: 3.13 mg/kg/injection, schedule: Q01DX009 (ip), vehicle: Klucel (hydroxypropylcellulose) (HPC)) is 94 % of control; the T/C (dose: 6.25 mg/kg/injection, schedule: Q01DX009 (ip), vehicle: Klucel (hydroxypropylcellulose) (HPC)) is 91 % of control; the T/C under setting [1] was 92 % of control.
Turning to `CC[C@@]1(O)C[C@H](OC2CC(N(C)C)C(OC3CC(O)C(OC4CCC(=O)C(C)O4)C(C)O3)C(C)O2)c2c(cc3c(c2O)C(=O)c2c(O)cccc2C3=O)[C@H]1C(=O)OC` (stereo partly specified), the T/C (dose: 0.75 mg/kg/injection, schedule: Q01DX001 (ip), vehicle: water) is 100 % of control and 106 % of control and 112 % of control; the T/C (dose: 0.75 mg/kg/injection, schedule: Q01DX009 (ip), vehicle: Klucel (hydroxypropylcellulose) (HPC)) was 123 % of control; the T/C (dose: 1.5 mg/kg/injection, schedule: Q01DX001 (ip), vehicle: water) was 105 % of control and 112 % of control and 120 % of control; the T/C (dose: 1.56 mg/kg/injection, schedule: Q01DX001 (ip), vehicle: water) was 103 % of control; the T/C (dose: 2.16 mg/kg/injection, schedule: Q01DX001 (ip), vehicle: water) is 95 % of control and 97 % of control; the T/C (dose: 3.0 mg/kg/injection, schedule: Q01DX001 (ip), vehicle: water) was 110 % of control and 124 % of control. Moreover, the T/C (dose: 3.0 mg/kg/injection, schedule: Q01DX009 (ip), vehicle: saline) is 160 % of control; the T/C (dose: 3.13 mg/kg/injection, schedule: Q01DX001 (ip), vehicle: water) was 110 % of control; the T/C (dose: 3.6 mg/kg/injection, schedule: Q01DX001 (ip), vehicle: water) was 91 % of control and 101 % of control; the T/C under setting [2] was 124 % of control; the T/C (dose: 8.0 mg/kg/injection, schedule: Q01DX001 (ip), vehicle: water) is 106 % of control and 120 % of control; the T/C (dose: 10.0 mg/kg/injection, schedule: Q01DX001 (ip), vehicle: water) was 100 % of control. The T/C was 110 % of control and 124 % of control (dose: 12.0 mg/kg/injection, schedule: Q01DX001 (ip), vehicle: water); 114 % of control and 121 % of control under setting [3]; 98 % of control under setting [4].
Turning to `NCCc1ccc(S(=O)(=O)O)cc1[N+](=O)[O-]`, the T/C was 96 % of control (dose: 50.0 mg/kg/injection, schedule: Q01DX009 (ip), vehicle: carboxymethylcellulose (CMC)); 86 % of control (dose: 100.0 mg/kg/injection, schedule: Q01DX009 (ip), vehicle: carboxymethylcellulose (CMC)); 89 % of control (dose: 200.0 mg/kg/injection, schedule: Q01DX009 (ip), vehicle: carboxymethylcellulose (CMC)).
In the case of `O=C(Nc1cccc(C(F)(F)F)c1)c1ccc(Cl)c(Cl)c1`, the T/C is 105 % of control (dose: 50.0 mg/kg/injection, schedule: Q01DX009 (ip), vehicle: gum acacia); 119 % of control (dose: 100.0 mg/kg/injection, schedule: Q01DX009 (ip), vehicle: gum acacia); 113 % of control (dose: 200.0 mg/kg/injection, schedule: Q01DX009 (ip), vehicle: gum acacia); 100 % of control (dose: 400.0 mg/kg/injection, schedule: Q01DX009 (ip), vehicle: gum acacia).
In the case of `COCCOC(=O)CCCCC(=O)OCCOC`, the T/C is 118 % of control (dose: 100.0 mg/kg/injection, schedule: Q01DX009 (ip), vehicle: saline); 106 % of control (dose: 200.0 mg/kg/injection, schedule: Q01DX009 (ip), vehicle: saline); 114 % of control (dose: 400.0 mg/kg/injection, schedule: Q01DX009 (ip), vehicle: saline).
In the case of `COc1ccc(Cl)cc1N`, the T/C by setting is: under setting [12], 95 % of control; under setting [13], 100 % of control; (dose: 100.0 mg/kg/injection, schedule: Q01DX009 (ip), vehicle: saline with Tween-80) 105 % of control.
For the compound `CCOP(=O)(N1CC1(C)C)N1CC1(C)C` (stereo unspecified), the T/C (dose: 5.0 mg/kg/injection, schedule: Q01DX009 (ip), vehicle: saline) was 109 % of control; the T/C (dose: 10.0 mg/kg/injection, schedule: Q01DX009 (ip), vehicle: saline) is 104 % of control; the T/C (dose: 20.0 mg/kg/injection, schedule: Q01DX009 (ip), vehicle: saline) is 109 % of control; the T/C (dose: 30.0 mg/kg/injection, schedule: Q01DX009 (ip), vehicle: saline) is 118 % of control.
In the case of `CCCCCCCCCCOCCCCCCCCCC`, the T/C reads like this: (dose: 12.5 mg/kg/injection, schedule: Q01DX009 (ip), vehicle: saline with Tween-80) 95 % of control; under setting [12], 95 % of control; under setting [13], 95 % of control; (dose: 200.0 mg/kg/injection, schedule: Q01DX009 (ip), vehicle: saline with Tween-80) 88 % of control; (dose: 400.0 mg/kg/injection, schedule: Q01DX009 (ip), vehicle: saline with Tween-80) 88 % of control.
Take `CNCCCC1c2ccccc2C=Cc2ccccc21`: the T/C is, setting by setting: (dose: 1.56 mg/kg/injection, schedule: Q01DX009 (ip), vehicle: saline) 106 % of control; under setting [8], 118 % of control; under setting [9], 103 % of control; under setting [10], 112 % of control; under setting [11], 109 % of control.
`NNC(=O)c1nc(N)n[nH]1`: the T/C reads like this: under setting [5], 103 % of control; under setting [6], 104 % of control; under setting [7], 103 % of control.
